The text below walks through data of ChEMBL document CHEMBL1914387, “Combining symmetry elements results in potent naphthyridinone (NTD) HIV-1 integrase inhibitors” (Bioorg Med Chem Lett, 2011).

SMILES strings stand for the structures.

Data set [1] deals with Human immunodeficiency virus 1. As to the kind of experiment: Antiviral activity against pseudo HIV1 infected in human 293T cells after 2 days by luciferase reporter gene assay. It is filed as functional, organism-based. As to conditions: Human immunodeficiency virus 1, HEK-293T, 48 h.
The test system of data set [2] is Human immunodeficiency virus 1. As to the kind of experiment: Ratio of EC50 for pseudo HIV1 infected in human 293T cells in presence of human serum albumin to EC50 for pseudo HIV1 infected in human 293T cells. The class given is functional.
Data set [3] has as its system Human immunodeficiency virus 1. Briefly: Antiviral activity against pseudo HIV1 infected in human 293T cells after 2 days by luciferase reporter gene assay in presence of human serum albumin. It is filed as functional, organism-based. As to conditions: Human immunodeficiency virus 1, HEK-293T, 48 h.
Data set [4] deals with Human immunodeficiency virus type 1 integrase (Human immunodeficiency virus 1, UniProt Q7ZJM1). As to the kind of experiment: Inhibition of HIV1 integrase strand transfer by biochemical assay.
A short description of data set [5]: Therapeutic index, ratio of CC50 for human 293T cells to EC50 for HIV1. As to conditions: read-out: Ratio CC50/EC50. The class given is cell-based.
The nature of data set [6]: Selectivity index, ratio of CC50 for human MT4 cells to EC50 for HIV13B. It is filed as toxicity, cell-based. As to conditions: read-out: Ratio CC50/EC50.
Data set [7] deals with Human immunodeficiency virus 1. Briefly: Antiviral activity against HIV1 3B infected in human MT4 cells assessed as inhibition of viral replication after 4-5 days by bioluminescence assay. The class given is functional, organism-based. The note with it: Human immunodeficiency virus 1, 3B.
For data set [8], the system named is Human immunodeficiency virus 1. As to the kind of experiment: Antiviral activity against HIV1 Ba-L infected in human PBMC cells assessed as inhibition of viral replication after 7 days by [methyl-3H]dTTP incorporation assay. It is filed as functional, organism-based. The note with it: Human immunodeficiency virus 1, Ba-L, 168 h.

Sequence of Human immunodeficiency virus type 1 integrase (Q7ZJM1 whole entry): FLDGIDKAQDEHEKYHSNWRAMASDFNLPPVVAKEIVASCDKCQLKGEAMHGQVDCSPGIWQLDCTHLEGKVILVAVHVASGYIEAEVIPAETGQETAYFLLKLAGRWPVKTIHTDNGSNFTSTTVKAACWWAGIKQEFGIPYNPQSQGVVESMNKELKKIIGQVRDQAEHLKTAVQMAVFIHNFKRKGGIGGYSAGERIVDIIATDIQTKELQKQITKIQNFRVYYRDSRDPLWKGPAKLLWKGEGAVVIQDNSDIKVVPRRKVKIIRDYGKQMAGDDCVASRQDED

For `CN(C)C(=O)Cn1c(=O)c(C(=O)NCc2ccc(F)cc2)c(O)c2ncc(Cc3ccc(F)cc3)cc21`, the EC50 in data set [1] came out at 10 nM; in data set [3], 130 nM. In addition, the “Ratio EC50” value in data set [2] is recorded as 10. Also, in data set [4], the IC50 was 4 nM. In addition, the selectivity ratio in data set [5] is 1150.
Take `O=C(NCc1ccc(F)cc1C(F)(F)F)c1c(O)c2ncc(Cc3ccccc3)cc2[nH]c1=O`: the 50% effective concentration (EC50) in data set [1] worked out at 39 nM; in data set [3], 480 nM. The IC50 in data set [4] amounted to 32 nM. Moreover, the selectivity ratio in data set [5] worked out at 90.
Consider `COc1ccc(CNC(=O)c2c(O)c3ncc(Cc4ccc(F)cc4)cc3[nH]c2=O)cc1`, for which the values for the EC50 in data set [1] and in data set [3] were 7 nM and 440 nM, respectively. The compound further returned an IC50 in data set [4] of 7 nM. In addition, in data set [5], the selectivity ratio is 1730.
Turning to `COc1cccc(CNC(=O)c2c(O)c3ncc(Cc4ccc(F)cc4)cc3[nH]c2=O)c1`, the EC50 turned out to be 13 nM in data set [1] and 460 nM in data set [3]. Further, the IC50 in data set [4] stood at 10 nM. Further, the selectivity ratio in data set [5] came to 1050.
Taken in the same sequence, the figures for `COc1ccccc1CNC(=O)c1c(O)c2ncc(Cc3ccc(F)cc3)cc2[nH]c1=O` were 9 nM, 330 nM, 6 nM and 1540.
Taken in the same sequence, the figures for `COc1ccc(CNC(=O)c2c(O)c3ncc(Cc4ccc(F)cc4)cc3[nH]c2=O)cc1OC` were 21 nM, 1100 nM, 8 nM and 680.
`CC(NC(=O)c1c(O)c2ncc(Cc3ccccc3)cc2[nH]c1=O)c1ccccc1` (centres undefined): the EC50 in data set [1] turned out to be 65 nM; in data set [3] it was 360 nM. The compound further displayed an IC50 in data set [4] of 20 nM. In data set [5], the selectivity ratio worked out at 79.
As for `Cn1c(=O)c(C(=O)NCc2ccc(F)cc2)c(O)c2ncc(Cc3ccc(F)cc3)cc21`, the results for the EC50 in data set [1], in data set [3] and in data set [7] were 8 nM, 530 nM and 66 nM, respectively. Further, the selectivity ratio turned out to be 453 in data set [6] and 1710 in data set [5]. For the same compound, in data set [4], 17 nM corresponded to half-maximal inhibition (IC50).
Take `CCCn1c(=O)c(C(=O)NCc2ccc(F)cc2)c(O)c2ncc(Cc3ccccc3)cc21`: the EC50 in data set [1] was found to be 70 nM; in data set [3], 640 nM. This compound showed an IC50 in data set [4] of 18 nM. Further, the selectivity ratio in data set [5] stood at 99.
On the same counts, the results for `O=C(NCc1ccc(F)cc1)c1c(O)c2ncc(Cc3ccccc3)cc2n(CC2CC2)c1=O` are 30 nM, 730 nM, 34 nM and 465.
With `Nc1ccc(Cn2c(=O)c(C(=O)NCc3ccc(F)cc3)c(O)c3ncc(Cc4ccccc4)cc32)cc1`, the EC50 in data set [1] is 12 nM; in data set [3], 140 nM. Also, the “Ratio EC50” value in data set [2] turned out to be 12. This compound had an IC50 in data set [4] of 28 nM. Also, in data set [5], the selectivity ratio stood at 1130.
Taken in the same sequence, the figures for `CS(=O)(=O)c1ccc(Cn2c(=O)c(C(=O)NCc3ccc(F)cc3)c(O)c3ncc(Cc4ccccc4)cc32)cc1` were 9 nM, 230 nM, 25, 28 nM and 1430.
`O=C(NCc1ccc(F)cc1)c1c(O)c2ncc(Cc3ccccc3)cc2n(CCN2CCCC2=O)c1=O`: the 50% effective concentration (EC50) in data set [1] stood at 8 nM; in data set [3] it was 290 nM. The IC50 in data set [4] amounted to 32 nM. Further, the selectivity ratio in data set [5] was determined as 1770.
On to `O=C(NCc1ccc(F)cc1)c1c(O)c2ncc(Cc3ccc(F)cc3)cc2n(CCN2CCCC2=O)c1=O`, for which the EC50 in data set [1] came to 3 nM; in data set [3], 140 nM; in data set [7], 20 nM; in data set [8] it was 11 nM. The values for the selectivity ratio in data set [6] and in data set [5] were over 400 and 5600, respectively. The compound further displayed an IC50 in data set [4] of 14 nM.
Turning to `O=C(NCc1ccc(F)cc1)c1c(O)c2ncc(Cc3ccc(F)cc3)cc2n(CC(=O)N2CCCCC2)c1=O`, the EC50 in data set [1] stood at 26 nM; in data set [3] it was 220 nM. Besides, in data set [2], the “Ratio EC50” value is given as 10. In data set [4], this compound gave an IC50 of 19 nM. For the same compound, the selectivity ratio in data set [5] came to 171.
`O=C(NCc1ccc(F)cc1)c1c(O)c2ncc(Cc3ccc(F)cc3)cc2n(CC(=O)N2CCOCC2)c1=O`: the EC50 in data set [1] is 3 nM; in data set [3], 45 nM; in data set [7], 15 nM. For the same compound, the selectivity ratio in data set [6] is 347; in data set [5], 2880. In data set [4], this compound registered an IC50 of 8 nM.
Compound `O=C(NCc1ccc(F)cc1)c1c(O)c2ncccc2[nH]c1=O` displayed an EC50 in data set [1] of 110 nM. In data set [4], this compound displayed an IC50 of 13 nM. Moreover, the selectivity ratio in data set [5] is 87.
Taken in the same sequence, the figures for `CC(C)n1c(=O)c(C(=O)NCc2ccc(F)cc2)c(O)c2ncccc21` were 400 nM, 1 nM and 30.
For the compound `O=C(NCc1ccc(F)cc1)c1c(O)c2ncccc2n(C2CCCC2)c1=O`, the figures for the half-maximal effective concentration (EC50) in data set [1] and in data set [3] were 110 nM and 1540 nM, respectively. For the same compound, the “Ratio EC50” value in data set [2] is 14. It took 6 nM to reach half-maximal inhibition in data set [4] (IC50). Further, the selectivity ratio in data set [5] worked out at 79.
For `O=C(NCc1ccc(F)cc1)c1c(O)c2ncc(Cc3ccccc3)cc2[nH]c1=O`, the EC50 was found to be 19 nM in data set [1], 430 nM in data set [3] and 37 nM in data set [7]. Further, the values for the selectivity ratio in data set [6] and in data set [5] were 108 and 711, respectively. For the same compound, the IC50 in data set [4] was found to be 13 nM.
As for `O=C(NCc1ccc(F)cc1)c1c(O)c2ncc(Cc3ccc(F)cc3)cc2[nH]c1=O`, the concentration giving a half-maximal response (EC50) in data set [1] was determined as 8 nM; in data set [3], 280 nM. Further, half-maximal inhibition in data set [4] (IC50) was put at 6 nM. For the same compound, the selectivity ratio in data set [5] came out at 1730.
Regarding `O=C(NCc1ccc(F)cc1Cl)c1c(O)c2ncc(Cc3ccccc3)cc2[nH]c1=O`, in data set [1], the response was half-maximal at 120 nM (EC50). This compound also yielded an IC50 in data set [4] of 35 nM. Besides, the selectivity ratio in data set [5] worked out at 117.
